This is an account of results in US20240270740A1, “INHIBITORS OF CYCLIC GMP-AMP SYNTHASE AND USES THEREOF” (Ventus Therapeutics U.S., Inc., priority 2022, published 2024).

Bounds are passed on as bounds.

Chain of hcGAS (Q8N884 whole entry): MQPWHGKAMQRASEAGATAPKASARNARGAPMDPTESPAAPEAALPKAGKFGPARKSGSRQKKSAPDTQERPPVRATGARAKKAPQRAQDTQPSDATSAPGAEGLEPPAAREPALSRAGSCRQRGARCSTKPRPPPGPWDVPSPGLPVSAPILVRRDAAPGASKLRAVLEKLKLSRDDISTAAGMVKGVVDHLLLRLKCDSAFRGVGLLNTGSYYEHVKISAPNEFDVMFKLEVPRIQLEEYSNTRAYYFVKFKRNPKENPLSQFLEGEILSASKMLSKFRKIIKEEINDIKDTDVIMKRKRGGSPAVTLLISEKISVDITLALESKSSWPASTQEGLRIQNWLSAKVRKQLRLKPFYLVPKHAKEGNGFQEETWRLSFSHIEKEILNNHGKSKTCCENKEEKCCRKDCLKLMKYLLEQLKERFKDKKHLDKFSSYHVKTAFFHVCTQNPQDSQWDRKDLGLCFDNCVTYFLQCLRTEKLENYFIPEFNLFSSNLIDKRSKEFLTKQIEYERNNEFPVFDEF

For the assay, the target named is hcGAS (Homo sapiens, UniProt Q8N884). The assay is described as follows: hcGAS Kinase-Glo assay (ATP depletion). Type of assay: biochemical. The conditions noted are these: 40 nM hcGAS, 100 μM ATP, 100 μM GTP, 25 nM dsDNA, 3 h incubation. The procedure:
cGAS catalyzes the cyclization of ATP and GTP to produce cGAMP, which is the activating ligand of STING. Human cGAS (hcGAS) inhibition can thus be quantified by measuring how much cGAMP is formed either indirectly, by monitoring ATP-depletion as in the hcGAS Kinase-Glo assay (as described below), or directly, such as using the hcGAS LCMS assay (as described below).
(i) hcGAS Kinase-Glo Assay
Compounds were tested for their human-cGAS […] inhibition activity using the methodology reported in Lama et al., “Development of human cGAS-specific small molecule inhibitors for repression of dsDNA-triggered interferon expression”, Nature Communications 10, Article number: 2261 (2019), with slight changes to some conditions as shown in Table B.
The results of the assay, expressed in IC50 values, are reported in Table D with the following designations: A represents an IC50 value<0.01 μM; B represents an IC50 value≥0.01 μM and <0.03 μM; C represents an IC50 value≥0.03 μM and <0.1 μM; D represents an IC50 value≥0.1.
Background: In Kinase-Glo more light means more ATP remaining.
The IC50 is the point on the concentration scale where inhibition reaches its midpoint. A low value points to greater potency. The molecule `COCC12CC(Nc3cc(C(=O)Nc4nnc(-n5nccc5C)s4)oc(=O)c3OC)(C1)C2` [Compound 44, 3-methoxy-4-((3-(methoxymethyl)bicyclo[1.1.1]pentan-1-yl)amino)-N-(5-(5-methyl-1H-pyrazol-1-yl)-1,3,4-thiadiazol-2-yl)-2-oxo-2H-pyran-6-carboxamide] returned an IC50 of 30 to 100 nM.

In turn, `COc1c(N2CC[C@@H](CO)C2)cc(C(=O)Nc2nnc(-n3nccc3C)s2)oc1=O` [Compound 88, (R)-4-(3-(hydroxymethyl)pyrrolidin-1-yl)-3-methoxy-N-(5-(5-methyl-1H-pyrazol-1-yl)-1,3,4-thiadiazol-2-yl)-2-oxo-2H-pyran-6-carboxamide] returned an IC50 of 10 to 30 nM. On to `COc1c(N[C@H]2CCC[C@@H]2O)cc(C(=O)Nc2nnc(-n3nccc3C)s2)oc1=O` (racemic) [Rac-15, 4-(((1S,2S)-2-hydroxycyclopentyl)amino)-3-methoxy-N-(5-(5-methyl-1H-pyrazol-1-yl)-1,3,4-thiadiazol-2-yl)-2-oxo-2H-pyran-6-carboxamide], for which the IC50 fell in the range of 30 to 100 nM. In the case of `COCCNc1cc(C(=O)Nc2nnc(-n3ncc(F)c3Cl)s2)oc(=O)c1OC` [Compound 134, N-(5-(5-chloro-4-fluoro-1H-pyrazol-1-yl)-1,3,4-thiadiazol-2-yl)-5-methoxy-4-(2-methoxyethylamino)-6-oxo-6H-pyran-2-carboxamide], the IC50 lay within 30 to 100 nM. With `COc1c(N[C@H]2C[C@H](O)C2)cc(C(=O)Nc2nnc(-n3nccc3C)s2)oc1=O` [Compound 16, 4-(((1,3-trans)-3-hydroxycyclobutyl)amino)-3-methoxy-N-(5-(5-methyl-1H-pyrazol-1-yl)-1,3,4-thiadiazol-2-yl)-2-oxo-2H-pyran-6-carboxamide], the IC50 was 30 to 100 nM. On to `COc1c(N[C@H]2C[C@H](OC)C2)cc(C(=O)Nc2nnc(-n3nccc3C)s2)oc1=O` [Compound 69, 3-methoxy-4-(((1,3-trans)-3-methoxycyclobutyl)amino)-N-(5-(5-methyl-1H-pyrazol-1-yl)-1,3,4-thiadiazol-2-yl)-2-oxo-2H-pyran-6-carboxamide], for which the IC50 is 10 to 30 nM.

`COc1c(NC23CC(CO)(C2)C3)cc(C(=O)Nc2nnc(-n3nccc3C)s2)oc1=O` [Compound 218, 4-((3-(hydroxymethyl)bicyclo[1.1.1]pentan-1-yl)amino)-3-methoxy-N-(5-(5-methyl-1H-pyrazol-1-yl)-1,3,4-thiadiazol-2-yl)-2-oxo-2H-pyran-6-carboxamide]: the IC50 is 10 to 30 nM. `COCC1CCN(c2cc(C(=O)Nc3nnc(-n4nccc4C)s3)oc(=O)c2OC)CC1` [Compound 2, 3-methoxy-4-(4-(methoxymethyl)piperidin-1-yl)-N-(5-(5-methyl-1H-pyrazol-1-yl)-1,3,4-thiadiazol-2-yl)-2-oxo-2H-pyran-6-carboxamide] came in with an IC50 of 10 to 30 nM. The figure for `COc1c(NCCO)cc(C(=O)Nc2nnc(-c3sccc3Cl)s2)oc1=O` [Compound 147, N-[5-(3-chlorothiophen-2-yl)-1,3,4-thiadiazol-2-yl]-4-[(2-hydroxyethyl)amino]-5-methoxy-6-oxopyran-2-carboxamide] is ≥ 100 nM; for `COc1c(N[C@H]2C[C@@H](O)C2)cc(C(=O)Nc2nnc(-n3nccc3C)s2)oc1=O` [Compound 65, 4-(((1,3-cis)-3-hydroxycyclobutyl)amino)-3-methoxy-N-(5-(5-methyl-1H-pyrazol-1-yl)-1,3,4-thiadiazol-2-yl)-2-oxo-2H-pyran-6-carboxamide] it is 30 to 100 nM; for `COc1c(N2CCC[C@@H]2CO)cc(C(=O)Nc2nnc(-n3nccc3C)s2)oc1=O` [Compound 34, (R)-4-(2-(hydroxymethyl)pyrrolidin-1-yl)-5-methoxy-N-(5-(5-methyl-1H-pyrazol-1-yl)-1,3,4-thiadiazol-2-yl)-6-oxo-6H-pyran-2-carboxamide] it is 30 to 100 nM. Under `COc1c(NCC(F)F)cc(C(=O)Nc2nnc(-n3nccc3C)s2)oc1=O` [Compound 89, 4-((2,2-difluoroethyl)amino)-3-methoxy-N-(5-(5-methyl-1H-pyrazol-1-yl)-1,3,4-thiadiazol-2-yl)-2-oxo-2H-pyran-6-carboxamide] stands 10 to 30 nM. The figure for `COc1c(NCCN)cc(C(=O)Nc2nnc(-n3nccc3C)s2)oc1=O` [Compound 203, 4-((2-aminoethyl)amino)-3-methoxy-N-(5-(5-methyl-1H-pyrazol-1-yl)-1,3,4-thiadiazol-2-yl)-2-oxo-2H-pyran-6-carboxamide] is ≥ 100 nM; for `CNc1cc(C(=O)Nc2nnc(-n3nccc3C)s2)oc(=O)c1OC` [Compound 105, 3-methoxy-N-(5-(5-methyl-1H-pyrazol-1-yl)-1,3,4-thiadiazol-2-yl)-4-(methylamino)-2-oxo-2H-pyran-6-carboxamide] it is 30 to 100 nM. `COc1c(NCCCO)cc(C(=O)Nc2nnc(-n3nccc3C)s2)oc1=O` [Compound 35, 4-((3-hydroxypropyl)amino)-3-methoxy-N-(5-(5-methyl-1H-pyrazol-1-yl)-1,3,4-thiadiazol-2-yl)-2-oxo-2H-pyran-6-carboxamide] registered an IC50 of 10 to 30 nM. As for `COc1c(N2CC[C@H](CO)C2)cc(C(=O)Nc2nnc(-n3nccc3C)s2)oc1=O` [Compound 58, (S)-4-(3-(hydroxymethyl)pyrrolidin-1-yl)-3-methoxy-N-(5-(5-methyl-1H-pyrazol-1-yl)-1,3,4-thiadiazol-2-yl)-2-oxo-2H-pyran-6-carboxamide], the IC50 is 10 to 30 nM.

As for `COc1c(N2CCC(CO)CC2)cc(C(=O)Nc2nnc(-n3nccc3C)s2)oc1=O` [Compound 12, 4-(4-(hydroxymethyl)piperidin-1-yl)-3-methoxy-N-(5-(5-methyl-1H-pyrazol-1-yl)-1,3,4-thiadiazol-2-yl)-2-oxo-2H-pyran-6-carboxamide], the IC50 was 10 to 30 nM.

Consider `CNCCNc1cc(C(=O)Nc2nnc(-n3nccc3C)s2)oc(=O)c1OC` [Compound 204, 3-methoxy-N-(5-(5-methyl-1H-pyrazol-1-yl)-1,3,4-thiadiazol-2-yl)-4-((2-(methylamino)ethyl)amino)-2-oxo-2H-pyran-6-carboxamide], for which the IC50 is ≥ 100 nM.

The molecule `COCCCNc1cc(C(=O)Nc2nnc(-n3nccc3C)s2)oc(=O)c1OC` [Compound 32, 5-methoxy-4-(3-methoxypropylamino)-N-(5-(5-methyl-1H-pyrazol-1-yl)-1,3,4-thiadiazol-2-yl)-6-oxo-6H-pyran-2-carboxamide] displayed an IC50 of 30 to 100 nM.

For `COc1c(N2CCC(O)CC2)cc(C(=O)Nc2nnc(-n3nccc3C)s2)oc1=O` [Compound 46, 4-(4-hydroxypiperidin-1-yl)-3-methoxy-N-(5-(5-methyl-1H-pyrazol-1-yl)-1,3,4-thiadiazol-2-yl)-2-oxo-2H-pyran-6-carboxamide], the IC50 lay within 10 to 30 nM. With `COCCNc1cc(C(=O)Nc2nnc(-c3c(C)csc3C#N)s2)oc(=O)c1OC` [Compound 137, N-(5-(2-cyano-4-methylthiophen-3-yl)-1,3,4-thiadiazol-2-yl)-3-methoxy-4-((2-methoxyethyl)amino)-2-oxo-2H-pyran-6-carboxamide], the IC50 was ≥ 100 nM.
